Reference: article PMC5840146, “Structure-Activity Relationship Analysis of 3-Phenylcoumarin-Based Monoamine Oxidase B Inhibitors” (Frontiers in Chemistry, 2018)

Key:
[1] = molecular target: T1, MAO-B (Homo sapiens, UniProt P27338); experiment: MAO-B inhibition of prior 3-phenylcoumarins (literature data); format: biochemical; conditions: LiPE = pIC50 - QPlogPo/w, literature IC50
T1 construct: purchased Sigma-Aldrich
T1 sequence (P27338 1-520): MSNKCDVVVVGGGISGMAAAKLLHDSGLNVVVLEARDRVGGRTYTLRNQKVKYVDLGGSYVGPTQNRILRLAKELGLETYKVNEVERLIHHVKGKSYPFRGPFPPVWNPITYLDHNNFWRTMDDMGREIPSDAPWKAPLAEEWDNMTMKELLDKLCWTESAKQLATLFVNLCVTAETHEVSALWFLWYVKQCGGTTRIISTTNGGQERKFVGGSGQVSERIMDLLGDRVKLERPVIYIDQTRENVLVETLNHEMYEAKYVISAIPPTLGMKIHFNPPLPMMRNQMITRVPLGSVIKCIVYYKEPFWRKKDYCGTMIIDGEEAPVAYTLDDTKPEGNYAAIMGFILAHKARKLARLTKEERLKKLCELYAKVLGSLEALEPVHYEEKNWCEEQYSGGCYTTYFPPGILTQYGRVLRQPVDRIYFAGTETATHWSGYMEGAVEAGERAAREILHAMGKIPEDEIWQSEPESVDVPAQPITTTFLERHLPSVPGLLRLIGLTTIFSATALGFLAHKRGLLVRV

[2] = molecular target: T1, MAO-B; conditions: 2012b, cited from earlier work
[3] = molecular target: T1, MAO-B; experiment: continuous spectrophotometric MAO-B inhibition assay; format: biochemical; conditions: for MAO-B inhibition %: 10 µM, 2h
Method: (§1) Both monoamine oxidase A (MAO-A) and B (MAO-B) protein and the reagents for the chromogenic solution of vanillic acid (4-hydroxy-3-methoxylbenzoic acid, 97% purity), 4-aminoantipyrine (reagent grade), horseradish peroxidase and the substrate tyramine hydrochloride (minimum 99% purity) as well as the potassium phosphate buffer, which was prepared using potassium phosphate dibasic trihydrate (≥99% ReagentPlus™) and potassium phosphate monobasic (minimum 98% purity, molecular biology tested), were purchased from Sigma-Aldrich (St. Louis, MO, USA) for the spectrophotometric assay.
(§2) The protocol for continuous spectrophotometric assay (Holt et al., [1997]) was followed in the activity measurements. The assay was performed in 0.2 M potassium phosphate buffer pH 7.6 on 96-well plates (Nunc™ 96F microwell plate without a lid, Nunc A/S, Roskilde, DK) in 200 μl total volume. The chromogenic solution containing 1 mM vanillic acid, 500 μM 4-aminoantipyrine and 8 U/ml horseradish peroxidase in 0.2 M potassium phosphate buffer pH 7.6 was mixed anew for each measurement. 5 mM tyramine solution was used as the substrate. In order to determine the activity of both MAO-B and MAO-A, concentration series as duplicates were prepared. The protein was combined with the chromogenic solution and incubated 30 min at 37°C. The background signal was measured using multilabel reader (Victor^TM X4, 2030 Multilabel Reader, PerkinElmer, Waltham, MA, USA) at A490 before reaching the total 200 μl volume by adding 20 μl of tyramine to final concentration of 0.5 mM on the plate. As a result, the final concentration of the chromogenic solution on the plate was 250 μM vanillic acid, 125 μM 4-aminoantipyrine and 2 U/ml horseradish peroxide. After adding the substrate, the plates were measured 300 times every 15 s using 1 s exposure time. The device was set to 37°C for the duration of the experiment.
(§3) The experiment conditions should produce absorbance change of ~0.35 (Holt et al., [1997]). […] The same wide panel of coumarin derivatives was additionally used to analyze the MAO-A inhibition at 100 μM (Table 1, Supplementary Table S1).
(§4) The measured data was then fitted on a curve using non-linear regression with the equation for log[inhibitor] vs. response. The IC50 values were therefore determined based on the curve fit. The fitted curves are shown on –log scale in Supplementary Figures S1, S2.

[4] = molecular target: T2, human CYP1A2 (Homo sapiens, UniProt P05177); experiment: CYP1A2 inhibition, 7-ethoxyresorufin fluorescence assay; format: biochemical
T2 construct: purchased Corning Inc
T2 sequence (P05177 1-516): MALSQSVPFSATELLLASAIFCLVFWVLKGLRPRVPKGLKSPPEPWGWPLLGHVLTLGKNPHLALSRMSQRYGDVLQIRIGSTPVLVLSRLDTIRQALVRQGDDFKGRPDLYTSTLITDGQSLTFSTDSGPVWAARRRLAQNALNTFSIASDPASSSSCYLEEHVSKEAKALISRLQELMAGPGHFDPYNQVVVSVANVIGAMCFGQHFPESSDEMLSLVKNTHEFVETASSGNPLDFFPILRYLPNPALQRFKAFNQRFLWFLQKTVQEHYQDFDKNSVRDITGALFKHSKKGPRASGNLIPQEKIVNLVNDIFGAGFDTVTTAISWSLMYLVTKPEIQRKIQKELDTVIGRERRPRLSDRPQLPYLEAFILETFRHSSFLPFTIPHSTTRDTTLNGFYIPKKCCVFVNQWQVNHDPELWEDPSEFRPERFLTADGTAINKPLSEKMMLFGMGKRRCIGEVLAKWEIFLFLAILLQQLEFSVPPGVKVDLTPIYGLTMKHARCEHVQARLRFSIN
Method: Inhibition of CYP1A2 activity was determined with commercial heterologously expressed human CYP1A2 enzyme (Corning Inc., Corning, NY, USA) as described earlier (Korhonen et al., [2005]). The metabolic activity was not in the scope of this particular study. The assay was adapted to the 96-well plate format. In each well, a 150 μL incubation volume contained 100 mM Tris-HCl buffer (pH 7.4), 4.2 mM MgCl2,1 μM 7-ethoxyresorufin, 0.5 pmol of cDNA expressed CYP1A2, […] inhibitor, and a NADPH-generating system. All inhibitors were dissolved in ethanol, and the final concentration of ethanol was 2% in all incubations. The reaction was initiated by adding the NADPH-regenerating system after a 10 min preincubation at 37°C, and after a 20 min incubation, the reaction was terminated by the addition of 110 μL of 80% acetonitrile/20% 0.5 M Tris base. The formed fluorescence was measured with a Victor2 plate counter (Perkin-Elmer Life Sciences Wallac, Turku, Finland) at 570 nm excitation and 616 nm emission.

[5] = molecular target: T3, MAO-A (Homo sapiens, UniProt P21397); experiment: continuous spectrophotometric MAO-A inhibition assay; format: biochemical; conditions: 100 µM, 1h
T3 construct: purchased Sigma-Aldrich
T3 sequence (P21397 1-527): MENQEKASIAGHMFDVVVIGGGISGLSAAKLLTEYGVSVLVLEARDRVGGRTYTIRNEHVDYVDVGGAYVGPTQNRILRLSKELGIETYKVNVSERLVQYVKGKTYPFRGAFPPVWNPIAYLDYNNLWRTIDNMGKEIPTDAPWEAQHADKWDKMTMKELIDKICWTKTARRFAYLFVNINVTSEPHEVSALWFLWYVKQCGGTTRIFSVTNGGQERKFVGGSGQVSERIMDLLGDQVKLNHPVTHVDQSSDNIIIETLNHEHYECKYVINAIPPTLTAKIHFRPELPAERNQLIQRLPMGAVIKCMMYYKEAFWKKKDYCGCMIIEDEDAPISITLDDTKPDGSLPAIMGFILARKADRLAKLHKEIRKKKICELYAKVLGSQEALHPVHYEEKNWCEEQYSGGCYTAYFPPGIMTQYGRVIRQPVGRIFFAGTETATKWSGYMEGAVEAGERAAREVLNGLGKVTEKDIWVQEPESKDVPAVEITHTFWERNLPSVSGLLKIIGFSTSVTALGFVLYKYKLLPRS
Method: as §1, §2, §3, §4

[6] = molecular target: T4, recombinant human HSD1 (Homo sapiens, UniProt P14061); experiment: HSD1 inhibition by HPLC with tritium labeled estrone/estradiol; format: biochemical; conditions: 1 μM
T4 construct: made in house; host or cells: Sf9 insect cells
T4 sequence (P14061 1-328): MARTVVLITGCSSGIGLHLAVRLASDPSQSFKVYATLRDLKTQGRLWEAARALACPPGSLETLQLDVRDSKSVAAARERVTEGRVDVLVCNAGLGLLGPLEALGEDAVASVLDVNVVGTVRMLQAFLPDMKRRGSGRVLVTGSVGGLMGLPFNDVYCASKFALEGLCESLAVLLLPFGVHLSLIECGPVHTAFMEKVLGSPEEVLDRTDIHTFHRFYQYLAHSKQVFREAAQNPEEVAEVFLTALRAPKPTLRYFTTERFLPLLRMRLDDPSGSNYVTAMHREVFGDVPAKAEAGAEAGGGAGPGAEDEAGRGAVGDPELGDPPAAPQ

[7] = molecular target: T5, ERα (Homo sapiens, UniProt P03372); experiment: PolarScreen ER Alpha Competitor Assay (fluorescence polarization); format: binding; conditions: for ER inhibition %: 10 μM
T5 construct: purchased Life Technologies
T5 sequence (P03372 1-595): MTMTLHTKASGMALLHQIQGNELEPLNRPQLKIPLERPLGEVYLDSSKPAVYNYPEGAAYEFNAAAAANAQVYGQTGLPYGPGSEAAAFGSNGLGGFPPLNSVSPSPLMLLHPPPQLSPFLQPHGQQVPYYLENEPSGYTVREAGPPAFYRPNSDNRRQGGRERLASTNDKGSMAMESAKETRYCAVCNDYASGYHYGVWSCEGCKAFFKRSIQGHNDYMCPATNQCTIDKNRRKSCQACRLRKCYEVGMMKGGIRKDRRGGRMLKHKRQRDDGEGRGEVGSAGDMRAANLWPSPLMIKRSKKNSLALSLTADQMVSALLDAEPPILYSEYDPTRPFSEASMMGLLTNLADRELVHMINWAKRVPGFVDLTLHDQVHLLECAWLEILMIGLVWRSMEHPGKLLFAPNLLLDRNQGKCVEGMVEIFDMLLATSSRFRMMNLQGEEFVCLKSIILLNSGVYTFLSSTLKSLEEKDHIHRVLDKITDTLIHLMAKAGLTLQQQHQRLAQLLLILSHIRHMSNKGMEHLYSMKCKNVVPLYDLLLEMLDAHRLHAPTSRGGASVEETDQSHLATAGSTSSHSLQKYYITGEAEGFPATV
Method: The pIC50 values for the derivatives (Table 1, Supplementary Table S1) were measured with green PolarScreen™ ER Alpha Competitor Assay (Life Technologies, CA, The United States of America) kit, following the manufacturer protocol as previously described (Niinivehmas et al., [2016]). The final concentration of the compounds ranged from 0.0007 to 10 000 nM in the dilution series which were performed as duplicates. The molecules were combined with 25 nM ERα and 4.5 nM fluormone in the assay buffer and placed on black low volume 384-well assay plate with NBS surface (Corning, NY, The United States of America). After mixing the assay plate, it was incubated for 2 h in RT. The fluorescence polarization was measured using excitation wave length 485 and emission wave length 535 with bandwidths of 25/20 nm on a 2104 EnVision® Multilabel Plate Reader which had EnVision Workstation version 1.7 (PerkinElmer, MA, The United States of America).

Structure (SMILES)	MAO-B inhibition % [3] [%]	IC50 [4] [µM]	MAO-A inhibition % [5] [%]	HSD1 inhibition % [6] [%]	ER inhibition % [7] [%]	also measured
O=c1oc2ccccc2cc1-c1ccccc1 [CHEMBL510349]	–	–	–	–	–	LiPE [1]: 1.47; pIC50 ([2]; MAO-B, from literature IC50 ref Viña et al.): 4.93; IC50 ([2]; prior 3-phenylcoumarins ref Viña et al., read-out: MAO-B inhibition IC50): 11.8 µM
Cc1ccc2oc(=O)c(-c3ccc(O)cc3)cc2c1 [CHEMBL577099]	–	–	–	–	–	LiPE [1]: 4.06
COc1ccc(-c2c(O)c3ccccc3oc2=O)cc1Cl [CHEMBL1934675]	–	–	–	–	–	LiPE [1]: 1.85
COc1ccc(-c2cc3ccc(OC)cc3oc2=O)cc1 [derivative 37]	39.78	480	0.00	0.00	–	–
O=c1oc2cc(O)ccc2cc1-c1cccc(O)c1 [derivative 40]	25.74	–	0.00	–	18.58	ER activity (in words) [7]: prominent
O=c1oc2cc(O)cc(O)c2cc1-c1cccc(O)c1 [derivative 42]	23.30	–	48.86	–	0.44	–
O=c1oc2c(O)cccc2cc1-c1cccc(O)c1 [derivative 43]	22.93	–	56.76	–	0.00	–
O=c1oc2c(O)cccc2cc1-c1ccc(O)cc1 [derivative 44]	22.52	–	22.39	–	96.18	ER activity (in words) [7]: prominent
O=c1oc2cc(O)cc(O)c2cc1-c1ccc(O)cc1 [derivative 45]	21.38	–	43.38	–	0.13	–
CC(=O)Oc1cccc2cc(-c3ccc(F)cc3)c(=O)oc12 [derivative 47]	15.81	17	22.33	0.00	–	–
O=c1oc2c(Cl)cc(Cl)cc2cc1-c1ccc(F)cc1 [derivative 49]	10.23	–	0.00	1.30	0.66	–
O=c1oc2c(CN3CCCCC3)c(O)ccc2cc1-c1ccccc1 [derivative 50]	8.16	65	0.00	1.50	–	MAO-B inhibition (in words) [3]: activity is lost
COc1ccc2cc(-c3cccc(OCc4ccccc4)c3)c(=O)oc2c1 [derivative 51]	6.66	3	0.00	31.60	–	–
CC(=O)Oc1ccc2cc(-c3ccccc3)c(=O)oc2c1 [derivative 52]	0.00	80	0.00	0.70	–	MAO-B inhibition (in words) [3]: activity is lost
